Test results published in the supplement of paper PMC10307832.

Assays:
Assay in all cases: relative viability (nuclei count vs DMSO), 5 days (fraction); higher = more cells survive
Olaparib = compound: O=C(c1cc(Cc2n[nH]c(=O)c3ccccc23)ccc1F)N1CCN(C(=O)C2CC2)CC1 [Olaparib]
Outline: (§1)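 Lung cancer cell lines were seeded into 1536-well plates, kept overnight at 37 °C and pinned with five library-drug doses (not always all listed) spaced by √10. After 5 days, nuclei were Hoechst-stained, imaged at 4× and counted with MetaXpress. Viability is treated-well nuclei over vehicle-well nuclei, taken as a median across plates. Plates needed control CV below 25% and at least one doubling.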

Crizotinib = compound: C[C@@H](Oc1cc(-c2cnn(C3CCNCC3)c2)cnc1N)c1c(Cl)ccc(F)c1Cl [Crizotinib]
Outline: as §1

Carfilzomib = compound: CC(C)C[C@H](NC(=O)[C@H](CCc1ccccc1)NC(=O)CN1CCOCC1)C(=O)N[C@@H](Cc1ccccc1)C(=O)N[C@@H](CC(C)C)C(=O)[C@@]1(C)CO1 [Carfilzomib]
Outline: as §1

Row | Cell Line | relative viability (Olaparib; 0.08 µM) | relative viability (Olaparib; 0.253 µM) | relative viability (Olaparib; 2.53 µM) | relative viability (Olaparib; 8 µM) | relative viability (Olaparib; 8 µM, anchor plate) | relative viability (Crizotinib; 0.01 µM) | relative viability (Crizotinib; 0.03162 µM) | relative viability (Crizotinib; 0.1 µM) | relative viability (Crizotinib; 0.3162 µM) | relative viability (Crizotinib; 1 µM) | relative viability (Crizotinib; 1 µM, anchor plate) | relative viability (Carfilzomib; 0.001 µM) | relative viability (Carfilzomib; 0.003162 µM) | relative viability (Carfilzomib; 0.01 µM) | relative viability (Carfilzomib; 0.03162 µM) | relative viability (Carfilzomib; 0.1 µM)
1 | NCI-H1355 | 1.02 | 0.962 | 0.981 | 0.91 | 0.754 | 0.983 | 1.01 | 1.05 | 0.797 | 0.981 | 1.05 | 0.876 | 1.04 | 1.01 | 0.946 | 0.18
2 | NCI-H1395 | 1.01 | 0.806 | 0.663 | 0.538 | 0.479 | 0.819 | 0.943 | 1.05 | 0.811 | 0.739 |  | 0.764 | 1.08 | 0.669 | 0.437 | 0.34
3 | NCI-H1437 | 1.02 | 0.873 | 0.927 | 0.814 | 0.617 | 0.951 | 1.03 | 0.996 | 0.884 | 1.08 |  | 0.952 | 1.07 | 1.04 | 0.884 | 0.358
4 | NCI-H1563 | 1.16 | 0.902 | 1.01 | 0.912 |  | 0.887 | 0.995 | 0.908 | 1 | 1.06 | 0.843 | 0.945 | 1.08 | 1.03 | 0.934 | 0.613
5 | NCI-H1623 | 1.07 | 0.987 | 0.917 | 0.791 |  | 0.891 | 1.01 | 0.915 | 0.89 | 0.891 |  | 0.972 | 1.12 | 1.04 | 0.885 | 0.33
6 | NCI-H1648 | 0.956 | 0.908 |  | 1.2 | 0.818 | 0.742 | 1.33 | 0.651 | 0.958 | 1.1 |  | 0.845 | 1.11 | 1.14 | 0.725 | 0.416
7 | NCI-H1650 | 1.21 | 0.848 | 0.785 | 0.871 | 0.812 | 0.842 | 0.993 | 0.969 | 0.891 | 0.931 | 1.02 | 0.986 | 0.975 | 0.341 | 0.141 | 0.186
8 | NCI-H1651 | 0.934 | 0.902 | 0.755 | 0.494 | 0.188 | 0.954 | 0.994 | 0.938 | 0.991 | 1.08 | 0.884 | 0.964 | 1.01 | 0.879 | 0.327 | 0.12
9 | NCI-H1666 | 0.985 | 0.916 | 0.821 | 0.838 | 0.738 | 0.952 | 1.02 | 0.985 | 0.971 | 0.987 | 1.04 | 1.02 | 1.07 | 1.06 | 0.981 | 0.437
10 | NCI-H1703 | 1.1 | 0.826 | 0.983 | 0.974 | 0.453 | 0.794 | 1.08 | 0.918 | 0.968 | 1.14 | 0.728 | 0.839 | 1.22 | 0.439 | 0.132 | 0.128
11 | NCI-H1734 | 1.06 | 0.935 | 0.862 | 0.726 | 0.635 | 0.913 |  | 0.886 |  | 0.955 | 0.672 | 0.972 | 1.04 | 0.904 | 0.354 | 0.124
12 | NCI-H1755 | 1.08 | 0.89 | 1.05 | 0.939 | 0.881 | 0.943 | 0.987 |  | 0.944 | 1 | 0.863 | 1.01 | 1.02 | 1 | 1.01 | 0.788
13 | NCI-H1792 | 0.923 | 0.725 | 0.773 | 0.605 | 0.419 | 0.886 | 1.01 | 1.09 |  | 0.909 | 0.997 | 0.827 | 0.962 | 0.957 | 0.658 | 0.388
14 | NCI-H1915 | 1.02 | 0.892 | 0.779 | 0.559 | 0.269 |  | 0.99 | 1.02 |  | 1.02 | 0.908 | 0.954 | 1.08 | 0.871 | 1 | 0.184
15 | NCI-H1944 | 0.921 | 0.806 | 0.656 | 0.646 | 0.419 | 0.879 | 0.992 | 0.907 | 1.02 | 0.893 | 1.1 | 0.907 | 1.03 | 0.927 | 1 | 0.343
16 | NCI-H1975 | 0.985 | 0.919 | 0.912 | 0.901 | 0.789 | 0.884 | 0.992 | 0.967 | 0.921 | 1.02 | 0.979 | 0.946 | 1.05 | 0.808 | 0.146 | 0.137
17 | NCI-H1993 | 0.909 | 0.956 | 0.978 | 1.01 | 1.12 | 0.859 | 0.978 | 0.807 | 0.798 | 0.753 | 0.872 | 0.943 | 0.999 | 1.01 | 0.818 | 0.426
18 | NCI-H2009 | 1.07 | 0.959 | 0.94 | 0.9 | 0.679 | 0.953 | 1 | 1.05 | 0.986 | 1 | 1.04 | 1.07 | 1.05 | 1.02 | 0.44 | 0.0846

Row | Cell Line | relative viability (Olaparib; 0.08 µM) | relative viability (Olaparib; 0.253 µM) | relative viability (Olaparib; 2.53 µM) | relative viability (Olaparib; 8 µM) | relative viability (Olaparib; 8 µM, anchor plate) | relative viability (Crizotinib; 0.01 µM) | relative viability (Crizotinib; 0.03162 µM) | relative viability (Crizotinib; 0.1 µM) | relative viability (Crizotinib; 0.3162 µM) | relative viability (Crizotinib; 1 µM) | relative viability (Crizotinib; 1 µM, anchor plate) | relative viability (Carfilzomib; 0.001 µM) | relative viability (Carfilzomib; 0.003162 µM) | relative viability (Carfilzomib; 0.01 µM) | relative viability (Carfilzomib; 0.03162 µM) | relative viability (Carfilzomib; 0.1 µM)
19 | NCI-H2023 | 0.98 | 0.944 | 0.901 | 0.685 | 0.478 | 0.85 | 0.982 | 0.974 | 0.761 | 0.734 | 0.676 | 1.01 | 0.965 | 0.944 | 0.436 | 0.0808
20 | NCI-H2085 | 1.16 | 0.912 | 0.983 | 0.959 | 0.769 | 0.936 | 1.03 | 0.977 | 1 | 0.975 | 0.882 | 1.02 | 1.03 | 0.962 | 0.547 | 0.323
21 | NCI-H2087 | 1.31 | 0.929 | 0.944 | 0.662 | 0.601 | 0.871 | 0.982 | 1.22 | 0.788 | 1.03 | 0.811 | 0.989 | 1.06 | 0.586 | 0.0747 | 0.0676
22 | NCI-H2126 | 1.07 | 0.984 | 0.982 | 1.01 | 0.907 | 0.934 | 1.02 | 0.959 | 0.914 | 0.993 |  | 0.994 | 1.07 | 1.03 | 0.93 | 0.568
23 | NCI-H2170 | 0.973 | 0.875 | 0.971 | 0.915 | 0.599 |  | 0.985 | 0.977 | 0.928 | 1.01 | 1.2 | 0.931 | 0.99 | 1.07 | 0.969 | 0.443
24 | NCI-H2228 | 1.12 | 0.845 | 0.777 | 0.609 | 0.719 | 1.16 | 1.04 | 1 | 0.679 | 0.585 | 0.482 | 0.975 | 1.15 | 0.905 | 0.157 | 0.101
25 | NCI-H2342 | 0.974 | 0.951 | 0.936 | 0.941 | 0.452 | 0.891 | 0.999 |  | 0.867 | 0.882 |  | 0.975 | 0.957 | 1.06 | 0.968 | 0.825
26 | NCI-H2347 | 1.09 | 0.877 | 0.877 | 0.765 | 0.583 | 0.965 | 0.974 | 1.07 | 0.973 | 1.06 | 0.73 | 0.971 | 1.08 | 1.03 | 0.511 | 0.393
27 | NCI-H2405 | 1.09 | 0.884 | 0.945 | 1.02 | 0.853 | 1.01 | 0.977 | 0.909 | 0.949 | 0.973 | 0.789 | 0.704 | 1.15 | 1.1 | 0.8 | 0.277
28 | NCI-H3122 | 1 | 0.966 | 0.946 | 0.865 | 0.607 | 0.944 | 0.988 | 1.02 | 0.864 | 0.798 | 0.275 | 1.03 | 1.05 | 1.03 | 0.978 | 0.455
29 | PC-3 [JPC-3] | 1.06 | 0.907 | 1.12 | 0.989 | 1.1 | 0.978 | 1.04 | 1.15 | 0.992 | 0.961 | 0.97 | 1 | 1.07 | 1.09 | 0.896 | 0.39
30 | PC-14 | 1.14 | 0.849 | 0.954 | 0.682 | 0.285 | 0.92 | 1.01 | 1.02 | 0.963 | 0.986 |  | 1.03 | 1.13 | 1.06 | 0.29 | 0.0816
31 | RERF-LC-KJ | 1.06 | 0.943 | 0.947 | 0.971 | 0.89 | 0.944 | 1.06 | 1.02 | 0.927 | 1.05 | 0.819 | 0.923 | 1.03 | 1.05 | 0.683 | 0.259
32 | SK-LU-1 | 1.13 | 0.906 | 0.926 | 0.735 | 0.44 | 1.06 | 1.07 | 1.02 | 1.05 | 1.08 | 0.852 | 0.968 | 1.22 | 1 | 0.249 | 0.187
33 | SK-MES-1 | 1.09 | 0.892 | 0.96 | 0.776 | 0.731 | 0.951 | 0.999 | 1.02 | 0.97 | 0.967 | 0.991 | 0.987 | 1.05 | 1.06 | 0.782 | 0.186
34 | SW 900 | 0.879 | 0.855 | 0.715 | 0.716 | 0.905 | 0.811 | 0.97 | 0.93 | 0.787 | 0.952 |  | 0.747 | 0.883 | 0.288 | 0.161 | 0.192
35 | SW 1573 | 1.1 | 0.896 | 0.825 | 0.633 | 0.512 | 0.941 | 0.999 | 0.917 | 0.885 | 0.974 | 0.793 | 0.957 | 1.18 | 0.77 | 0.173 | 0.0655
36 | UMC-11 | 1.03 | 0.894 | 0.758 | 0.492 | 0.373 | 0.898 | 0.972 | 0.91 | 0.636 | 1.01 | 0.606 | 0.947 | 1.03 | 0.987 | 0.854 | 0.578
